For series [1], the system named is CAR-regulated genes in LS174T cells. The series can be described thus: Quantitative real-time PCR in LS174T cells. The settings on record: 1 μM CINPA1 or 5 μM PK11195, 24 h. Type of series: cell-based. From the text: RNA was extracted, cDNA synthesized, and gene expression analyzed by performing real-time PCR using Taqman probes for each gene. […] LS174T cells were maintained in 10% charcoal-dextran-treated, FBS media for 4 days before the experiment. […] Briefly, human primary hepatocytes (HPH) were maintained in William's E media with supplements for 4 days before treatment. […] RNA extracted was used for cDNA synthesis and measured by performing quantitative real-time PCR assays with Taqman probes.
Briefly, LS174T were maintained in 10% charcoal-dextran treated-FBS media for 4 days prior to the experiment. […] For the data shown in both FIG. 12A and FIG. 12B, RNA extracted was used for cDNA synthesis and measured by quantitative real-time PCR with Taqman probes. MDR1 mRNA was normalized to the internal control 18S and DMSO treated samples were set to 1. *, p<0.05 when compared to DMSO samples.
Cell lines or human hepatocytes were treated with chemicals for 24-48 hours before RNA was extracted and purified by using the Maxwell 16LEV simplyRNA tissue kit (Promega). Then, cDNA was prepared from 2 μg of RNA, and diluted cDNA was used to perform quantitative RT-PCR assays by using TaqMan probes (ABI; 7500 Thermocycler) with 18S as the internal standard.

The subject of series [2] is HepG2, LS174T, and HEK293T cells. The series can be described thus: Cell viability (CellTiter-Glo). Background: Cellular ATP, detected with luciferase, serves as a proxy for viable cell number.
Experimental: Cells were treated with indicated compounds for 24 h, and viability was measured by using CellTiter-Glo® reagent. […] Cell viability was measured 4 days post treatment by using CellTiter-Glo® reagent. Viability of cells treated with DMSO (negative control) was set to 100% in all assays.
Series [3] relates to FXR, GR, LXRα, LXRβ, PPARγ, RXRα, RXRβ, VDR. The series can be described thus: GeneBLAzer nuclear receptor assays. Type of series: cell-based. Particulars: 18 μM. The method, then:
FIG. 3B-FIG. 31 show representative data for treatment of GeneBLAzer® cells treated with DMSO (negative control), a predetermined concentration of the indicated nuclear receptor (“NR”) antagonist (positive control; concentration as detailed in Examples), or 18 μM of CINPA1 in the presence or absence the indicated NR agonist (i.e., indicated below treatments). NR-mediated β-lactamase activity was measured as a FRET ratio after 24 h treatment. Data is presented as % Activity, determined by setting the maximum FRET signal obtained for each receptor (in the respective agonist+DMSO wells) to 100%. eGugg=e Guggulsterone, Feno=Fenofibrate, GW9=GW9662, 22HC=22(S)-hydroxycholesterol, 9-cis RA=9-cis retinoic acid.
GeneBLAzer® cells individually expressing the ligand-binding domains of either FXR, GR, LXRα, LXRβ, PPARγ, RXRα, RXRβ, or VDR fused to the GAL4-DNA binding domain (GAL4-DBD) were obtained from Life Technologies (Li, G., et al. (2012) Tox. Appl. Pharm. 258, 268-274; and Yu, D. D., et al. (2013) Bioorg. Med. Chem 21, 4266-4278). Upon activation with the respective agonist, β-lactamase is expressed under the transcriptional control of an Upstream Activator Sequence (UAS), and a FRET-based substrate (CCF2-AM) is used to measure the enzyme activity of β-lactamase.

For `CCOC(=O)Nc1ccc2c(c1)N(C(=O)CN(CC)CC)c1ccccc1CC2` [CINPA1], in series [1], the “CYP2B6 mRNA level” value is reported as “moderately reduced the levels of CYP2B6”, the “CYP3A4 mRNA level” value is “without significantly affecting CYP3A4” and the “MDR1 mRNA level” value is reported as “reduced MDR1 levels”. For the same compound, the “cytotoxicity at higher concentrations” value in series [2] (30 μM and 60 μM) was “cytotoxic to varying degrees”. For the same compound, the general cytotoxicity result in series [2] (concentration range effective in inhibiting CAR and PXR, 4-day assay) is “does not exhibit general cytotoxicity”. Moreover, in series [3] (with NR agonist), the “attenuation of agonist-induced receptor activation” value was “did not attenuate the agonist-induced activation of any of the receptors tested”. Besides, in series [3] (without agonist), the “activation of nuclear receptors” value is “did not activate any of the nuclear receptors tested”.

Values taken from patent US9908890B2, “Selective inhibitors of constitutive androstane receptor” (ST. JUDE CHILDREN'S RESEARCH HOSPITAL, priority 2014, dated 2018).
